Common to all, as to format: cell-based
For one assay, the system named is NCAM-VASE. Nature of the assay: NCAM-VASE staining of cultured cortical astrocytes. The conditions noted are these: PND4 rat cortical astrocytes; 2 days; 1 mM dbcAMP or 50 ng/ml FGF-2. The protocol:
(§1) Expression of NCAM-VASE by astrocytes was also examined. Astrocytes (>90% GFAP-positive cells) were isolated from the cortices of PND4 rat and cultured for 2 days in the absence or presence of 1 mM dbcAMP or 50 ng/ml FGF-2 in DMEM/10% FBS. Treatment with dbcAMP or FGF is known to stimulate a reactive phenotype in astrocytes, such as is found in astrocytes in the glial scars that are characteristic of damaged CNS. The astrocytes were then fixed and costained for GFAP and NCAM-VASE (as shown in FIG. 4) or total NCAM (not shown).

For a further assay, the system named is total NCAM. Briefly: Total NCAM staining of cultured cortical astrocytes. As to conditions: PND4 rat cortical astrocytes; 2 days; 1 mM dbcAMP or 50 ng/ml FGF-2. The protocol: as §1
Assay [1] deals with PND4 rat cerebellar granule neurons. Nature of the assay: Neurite/axon outgrowth of cerebellar granule neurons cultured on 3T3 monolayers (control, NCAM or NCAM-VASE). The conditions noted are these: FGF (0.1 ng/m) or forskolin added to culture medium. As to the method:
It has previously been shown that soluble NCAM-Fc stimulates axon outgrowth over control monolayers as effectively as if it were expressed in the monolayer (Meiri et al, J. Neurosci, 1998, 18, 10429-10437). […]
[…] Cerebellar granule neurons were cultured on control, NCAM-expressing (NCAM) or NCAM-VASE-expressing (VASE) monolayers in the absence of presence of soluble NCAM-Fc or NCAM-VASE-Fc (VASE-Fc).

For `CCCC(=O)Nc1ncnc2c1ncn2[C@@H]1O[C@@H]2COP(=O)(O)O[C@H]2[C@H]1OC(=O)CCC` [dBcAMP, dbcAMP, reference compound], the NCAM-VASE staining entry with NCAM-VASE is “large upregulation”. The “total NCAM staining” value in the assay on total NCAM is “large upregulation”.
As for “FGF2: fibroblast growth factor, known to stimulate axon outgrowth from cerebellar granule neurons”, in the assay on NCAM-VASE, the NCAM-VASE staining result is listed as “large upregulation”. In the assay on total NCAM, the “total NCAM staining” value is “large upregulation”. Further, the axon length result in assay [1] (NCAM-VASE-expressing monolayers) is reported as “do not extend longer axons”. In addition, in assay [1] (control monolayers), the axon outgrowth result is recorded as “stimulate axon outgrowth”.
